Key:
Format in all cases: cell-based, Pseudomonas aeruginosa
[1] = system: P. aeruginosa strain PA239; assay: Bactericidal assay in FBS-containing medium (FMP); details: within the 3 h of incubation
Protocol: (§1) To test whether PAX follow this common mechanism, the experiment initially examined the bactericidal activity of the top selection, PAX E35, against the MDR P. aeruginosa strain PA239 (resistant to all 12 test antibiotics, including colistin, Table 6). Bactericidal properties were assessed using a medium called FMP (FBS, 15%; MHB2, 25%; PBS, 60%) that is more physiologically relevant than MHB2 with the inclusion of saline and fetal bovine serum, a known inhibitory condition for many AMPs [Di Y P et al., 2020; Deslouches B et al., 2005]. […] In addition, E35 killed 2 logs of the bacterial cells within the first minute of treatment at 2 μM and 4 μM, compared to the non-effective tobramycin (FIG. 6B). No bacterial cells survived E35 treatment after 5-10 minutes of incubation. […]
(§2) Antibacterial assays. […] The bacterial cells were kept in an incubator for 18 hours at 37° C., which is linked to a robotic system that feeds a plate reader every hour with one of 8×96-well plates. This set-up allows the collection of growth kinetic data at A 570 (absorbance at 570 nm) to examine growth inhibition in real time (BioTek Instruments, USA). […] MBC (minimum bactericidal concentration) was determined as the peptide concentration at which complete bacterial killing was observed [Rozek A et al., 2000]. […] Data were analyzed using GraphPad Prism software.

[2] = system: P. aeruginosa strain PA239; assay: Killing kinetics; details: PA239, at 2 μM and 4 μM
Protocol: as §1, §2

[3] = system: MDR strain PA239; assay: Membrane permeabilization, PI incorporation by real-time video imaging; details: PA239 at high inoculum (5×10^8 CFU/mL); E35 at 8 μM
Source text: (§3) Determination of membrane permeabilization. To examine whether the selected peptides kill their bacterial target mainly by membrane permeabilization, this study used PI incorporation by the MDR strain PA239 (5×10^8 CFU/mL) quantitated by flow cytometry (Novocyte, USA) or visualized by video imaging using the digital microscope EVOS M7000 (Thermo-Fisher, USA) in bright field or red fluorescence channel. In the flow cytometry experiments [Deslouches B et al., 2015], bacterial cells were either untreated or treated with different peptide E35 concentrations in MHB2 for 1 hour at 37° C. The bacteria-peptide mixture was washed with PBS using an Eppendorf centrifuge at top speed for 7 minutes and incubated with PI in the dark for 15 min at room temperature. Tobramycin was used as a negative control with a 3-hour long incubation. For video imaging, the broth medium was reduced to 20% in PBS (treated or untreated) to decrease the rate of cell division and PI incorporation assessed over time. Video images were recorded in real time using the 40× objective either in bright field or red fluorescence channel.

[4] = system: MDR strain PA239; assay: Membrane permeabilization, PI incorporation by flow cytometry; details: PA239, 1% triton X-100
Source text: as §3

Compound	bacterial killing [1]	bacterial cells killed within the first minute of treatment [2]	PI incorporation by real-time video imaging [3]	PI incorporation [4] [%]
NC[C@H]1O[C@H](O[C@H]2[C@H](O)[C@@H](O[C@H]3O[C@H](CO)[C@@H](O)[C@H](N)[C@H]3O)[C@H](N)C[C@@H]2N)[C@H](N)C[C@@H]1O [tobramycin]	did not display any substantial bacterial killing	non-effective	did not demonstrate any markedly detectable intracellular PI	–
triton X-100	–	–	–	55
